US7906507B2, “Oxadiazoanthracene compounds for the treatment of diabetes” (TransTech Pharma, Inc., priority 2008, dated 2011)
pEC50: −log10 of the molar value. Each block holds one compound with its values, some of them ahead of it.

Target: T1, cloned human GLP-1 receptor (Homo sapiens, UniProt P43220)
T1 construct: expressed in transfected cells; host or cells: CHO or HEK-293 cells
Experiment: Functional cell-based assay: cAMP functional assay
Conditions: for Emax: 0.5 h, percentage relative to maximal GLP-1-induced cAMP accumulation, na = not active in the assay, read-out: % activation
Description: Following overnight incubation of cells, media was removed, and compounds (at concentrations ranging from 0.0001 to 100 μM) were added to monolayer cells in Iscove's modified dulbecco's medium (IMDM), 100 μM RO 20-1724 PDE inhibitor, 0.1% BSA, 2% DMSO in a final volume of 100 μL, and incubated for 30 min at 37° C. 95% O2, 5% CO2 in a humidified incubator. cAMP was quantitated using a homogenous time-resolved fluorescence detection system (cAMP dynamic, CIS bio International).

T1 sequence (P43220 24-463): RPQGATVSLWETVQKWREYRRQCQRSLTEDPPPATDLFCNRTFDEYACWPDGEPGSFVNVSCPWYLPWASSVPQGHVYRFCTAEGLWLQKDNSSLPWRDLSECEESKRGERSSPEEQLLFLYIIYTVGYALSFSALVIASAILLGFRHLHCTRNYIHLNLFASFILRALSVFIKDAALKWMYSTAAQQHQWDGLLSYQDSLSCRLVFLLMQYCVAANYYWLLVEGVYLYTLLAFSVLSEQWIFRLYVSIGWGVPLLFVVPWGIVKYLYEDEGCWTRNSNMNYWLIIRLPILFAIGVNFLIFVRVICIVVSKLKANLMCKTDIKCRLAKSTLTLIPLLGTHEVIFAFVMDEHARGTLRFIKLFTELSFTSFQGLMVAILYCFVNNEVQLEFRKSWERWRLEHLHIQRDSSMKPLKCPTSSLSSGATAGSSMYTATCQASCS

Structure (SMILES): N#Cc1ccc(-c2ccc(C[C@H](NC(=O)[C@@H]3Cc4cc5c(cc4CN3C(=O)O[C@@H]3CCOC3)OC(c3ccc(OCc4ccc(Cl)c(Cl)c4)cc3)C(=O)N5)C(=O)O)cc2)cc1 (stereo partly drawn) [Example 19, (S)-7-[(S)-1-Carboxy-2-(4′-cyano-biphenyl-4-yl)-ethylcarbamoyl]-3-[4-(3,4-dichloro-benzyloxy)-phenyl]-2-oxo-1,2,3,5,7,8-hexahydro-4-oxa-1,6-diaza-anthracene-6-carboxylic acid (R)-(tetrahydro-furan-3-yl) ester]
pEC50: 6.74 | Emax: 69.9%

Structure (SMILES): N#Cc1ccc(-c2ccc(C[C@H](NC(=O)[C@@H]3Cc4cc5c(cc4CN3C(=O)C3CCCCC3)OC(c3ccc(OCc4ccc(Cl)c(Cl)c4)cc3)C(=O)N5)C(=O)O)cc2)cc1 (stereo partly drawn) [Example 25, (S)-3-(4′-Cyano-biphenyl-4-yl)-2-({(S)-6-cyclohexanecarbonyl-3-[4-(3,4-dichloro-benzyloxy)-phenyl]-2-oxo-2,3,5,6,7,8-hexahydro-1H-4-oxa-1,6-diaza-anthracene-7-carbonyl}-amino)-propionic acid]
pEC50: 6.23 | Emax: 12%

Structure (SMILES): CC(C)(C)OC(=O)N1Cc2cc3c(cc2C[C@H]1C(=O)N[C@@H](Cc1ccc(-c2ccc(C#N)cc2)cc1)C(=O)O)NC(=O)C(c1ccc(OCc2ccc(Cl)c(Cl)c2)cc1)O3 (stereo partly drawn) [Example 29, (S)-7-[(S)-1-Carboxy-2-(4′-cyano-biphenyl-4-yl)-ethylcarbamoyl]-3-[4-(3,4-dichloro-benzyloxy)-phenyl]-2-oxo-1,2,3,5,7,8-hexahydro-4-oxa-1,6-diaza-anthracene-6-carboxylic acid tert-butyl ester]
pEC50: 6.54 | Emax: 17%

Structure (SMILES): Cc1cc(C(=O)N2Cc3cc4c(cc3C[C@H]2C(=O)N[C@@H](Cc2ccc(-c3ccc(C#N)cc3)cc2)C(=O)O)NC(=O)C(c2ccc(OCc3ccc(Cl)c(Cl)c3)cc2)O4)no1 (stereo partly drawn) [Example 31, (S)-3-(4′-Cyano-biphenyl-4-yl)-2-{[(S)-3-[4-(3,4-dichloro-benzyloxy)-phenyl]-6-(5-methyl-isoxazole-3-carbonyl)-2-oxo-2,3,5,6,7,8-hexahydro-1H-4-oxa-1,6-diaza-anthracene-7-carbonyl]-amino}-propionic acid]
pEC50: 6.00 | Emax: 13%

Structure (SMILES): N#Cc1ccc(-c2ccc(C[C@H](NC(=O)[C@@H]3Cc4cc5c(cc4CN3S(=O)(=O)c3cccs3)OC(c3ccc(OCc4ccc(Cl)c(Cl)c4)cc3)C(=O)N5)C(=O)O)cc2)cc1 (stereo partly drawn) [Example 32, (S)-3-(4′-Cyano-biphenyl-4-yl)-2-{[(S)-3-[4-(3,4-dichloro-benzyloxy)-phenyl]-2-oxo-6-(thiophene-2-sulfonyl)-2,3,5,6,7,8-hexahydro-1H-4-oxa-1,6-diaza-anthracene-7-carbonyl]-amino}-propionic acid]
pEC50: 6.15 | Emax: 8.3%

Structure (SMILES): CN(C)C(=O)N1Cc2cc3c(cc2C[C@H]1C(=O)N[C@@H](Cc1ccc(-c2ccc(C#N)cc2)cc1)C(=O)O)NC(=O)C(c1ccc(OCc2ccc(Cl)c(Cl)c2)cc1)O3 (stereo partly drawn) [Example 33, (S)-3-(4′-Cyano-biphenyl-4-yl)-2-({(S)-3-[4-(3,4-dichloro-benzylozy)-phenyl]-2-oxo-6-dimethylcarbamoyl-2-oxo-2,3,5,6,7,8-hexahydro-1H-4-oxa-1,6-diaza-anthracene-7-carbonyl}-amino)-propionic acid]
pEC50: 5.89 | Emax: 7%

Results, then the compound that gave them:

pEC50: 6.38 | Emax: 83.5%
Structure (SMILES): N#Cc1ccc(-c2ccc(C[C@H](NC(=O)[C@@H]3Cc4cc5c(cc4CN3C(=O)c3ccco3)OC(c3ccc(OCc4ccc(Cl)c(Cl)c4)cc3)C(=O)N5)C(=O)O)cc2)cc1 (stereo partly drawn) [Example 20, (S)-3-(4′-Cyano-biphenyl-4-yl)-2-{[(S)-3-[4-(3,4-dichloro-benzyloxy)-phenyl]-6-(furan-2-carbonyl)-2-oxo-2,3,5,6,7,8-hexahydro-1H-4-oxa-1,6-diaza-anthracene-7-carbonyl]-amino}-propionic acid]

pEC50: 6.40 | Emax: 70.3%
Structure (SMILES): Cc1cccc(C(=O)N2Cc3cc4c(cc3C[C@H]2C(=O)N[C@@H](Cc2ccc(-c3ccc(C#N)cc3)cc2)C(=O)O)NC(=O)C(c2ccc(OCc3ccc(Cl)c(Cl)c3)cc2)O4)c1 (stereo partly drawn) [Example 21, (S)-3-(4′-Cyano-biphenyl-4-yl)-2-{[(S)-3-[4-(3,4-dichloro-benzyloxy)-phenyl]-6-(3-methyl-benzoyl)-2-oxo-2,3,5,6,7,8-hexahydro-1H-4-oxa-1,6-diaza-anthracene-7-carbonyl]-amino}-propionic acid]

pEC50: 6.05 | Emax: 73.5%
Structure (SMILES): N#Cc1ccc(-c2ccc(C[C@H](NC(=O)[C@@H]3Cc4cc5c(cc4CN3C(=O)c3ccc(F)cc3)OC(c3ccc(OCc4ccc(Cl)c(Cl)c4)cc3)C(=O)N5)C(=O)O)cc2)cc1 (stereo partly drawn) [Example 22, (S)-3-(4′-Cyano-biphenyl-4-yl)-2-{[(S)-3-[4-(3,4-dichloro-benzyloxy)-phenyl]-6-(4-fluoro-benzoyl)-2-oxo-2,3,5,6,7,8-hexahydro-1H-4-oxa-1,6-diaza-anthracene-7-carbonyl]-amino}-propionic acid]

pEC50: 5.89 | Emax: 65.5%
Structure (SMILES): COc1ccc(C(=O)N2Cc3cc4c(cc3C[C@H]2C(=O)N[C@@H](Cc2ccc(-c3ccc(C#N)cc3)cc2)C(=O)O)NC(=O)C(c2ccc(OCc3ccc(Cl)c(Cl)c3)cc2)O4)cc1 (stereo partly drawn) [Example 23, (S)-3-(4′-Cyano-biphenyl-4-yl)-2-{[(S)-3-[4-(3,4-dichloro-benzyloxy)-phenyl]-6-(4-methoxy-benzoyl)-2-oxo-2,3,5,6,7,8-hexahydro-1H-4-oxa-1,6-diaza-anthracene-7-carbonyl]-amino}-propionic acid]

pEC50: 5.80 | Emax: 53%
Structure (SMILES): N#Cc1ccc(-c2ccc(C[C@H](NC(=O)[C@@H]3Cc4cc5c(cc4CN3C(=O)c3cccc(C(F)(F)F)c3)OC(c3ccc(OCc4ccc(Cl)c(Cl)c4)cc3)C(=O)N5)C(=O)O)cc2)cc1 (stereo partly drawn) [Example 24, (S)-3-(4′-Cyano-biphenyl-4-yl)-2-{[(S)-3-[4-(3,4-dichloro-benzyloxy)-phenyl]-2-oxo-6-(3-trifluoromethyl-benzoyl)-2,3,5,6,7,8-hexahydro-1H-4-oxa-1,6-diaza-anthracene-7-carbonyl]-amino}-propionic acid]

pEC50: 5.96 | Emax: 14%
Structure (SMILES): N#Cc1ccc(-c2ccc(C[C@H](NC(=O)[C@@H]3Cc4cc5c(cc4CN3C(=O)c3cccc4ccccc34)OC(c3ccc(OCc4ccc(Cl)c(Cl)c4)cc3)C(=O)N5)C(=O)O)cc2)cc1 (stereo partly drawn) [Example 26, (S)-3-(4′-Cyano-biphenyl-4-yl)-2-{[(S)-3-[4-(3,4-dichloro-benzyloxy)-phenyl]-6-(naphthalene-1-carbonyl)-2-oxo-2,3,5,6,7,8-hexahydro-1H-4-oxa-1,6-diaza-anthracene-7-carbonyl]-amino}-propionic acid]

pEC50: 6.40 | Emax: 29%
Structure (SMILES): N#Cc1ccc(-c2ccc(C[C@H](NC(=O)[C@@H]3Cc4cc5c(cc4CN3C(=O)c3cccs3)OC(c3ccc(OCc4ccc(Cl)c(Cl)c4)cc3)C(=O)N5)C(=O)O)cc2)cc1 (stereo partly drawn) [Example 28, (S)-3-(4′-Cyano-biphenyl-4-yl)-2-{[(S)-3-[4-(3,4-dichloro-benzyloxy)-phenyl]-2-oxo-6-(thiophene-2-carbonyl)-2,3,5,6,7,8-hexahydro-1H-4-oxa-1,6-diaza-anthracene-7-carbonyl]-amino}-propionic acid]
